Laboratory results reported in patent US10183011B2, “Anti-depression compounds” (Board of Regents of the University of Texas System, priority 2009, dated 2019).

Tests used:
G93A-SOD1 mutant mice = test: Walking gait (pawprint analysis) in G93A-SOD1 mice, treatment from day 80; format: in vivo, mouse; conditions: 20 mg/kg/day from day 80
Protocol: FIG. 36A and FIG. 36B. P7C3A20 preserves walking gait when administered at the time of disease onset to G93A-SOD1 mutant mice. […] Front and back stride were collected as a straight line from back paw print to the following paw print. Back-front distance was collected as a straight line from back paw print to the corresponding front paw print. 20 measurements (10 on each side) for each parameter were measured per mouse, and 20 mice per group were evaluated at 90 and 118 day time points. All measurements were conducted blind to treatment group, and the student's t test was used for statistical comparison of a treatment group to its matched vehicle group. FIG. 36B—At 90 days, there were no differences between any groups in back stride, front stride and back-front distance. […] Back stride and front stride were preserved to near-normal levels in P7C3A20 treated mice on day 118. By day 132, P7C3 and Dimebon treated mice were too sick to participate in the task. At this time point, P7C3A20 treated mice continued to show normalized back stride and front stride levels.
Analysis of walking gait offers a second means of assessing motor limb strength and coordination in rodent models of ALS. We conducted this analysis in the same mice used for the accelerating rotarod task, at three time points: 90, 118 and 132 days. Briefly, the front paws of each test mouse were dipped in orange tempera paint, and the back paws in blue tempera paint. […] Key parameters of the pawprints were then manually measured, as described in Methods. […]
Five measurements were taken: front and back stride, front and back width, and front to back distance, as described in Current Protocols for Neuroscience. […] Width from paw print was measured by drawing a line at a 90 degree angle from the line connecting the stride previous and the paw being analyzed. The distance was recorded as length of line from paw to the stride line opposite the paw print. […]
Pawprints were recorded at 90, 118 and 132 days of age. […]

[1] = system: newborn hippocampal neurons; test: 30 day BrdU pulse-chase survival assay of newborn hippocampal neurons, dose response; format: in vivo, mouse (C57 Bl/6); conditions: for increase in survival of newborn neurons: 5 mg/kg/day i.p. for 30 days; for neuroprotective efficacy (increase in survival of newborn neurons): 10 mg/kg/day i.p. for 30 days; for ceiling of efficacy (CoE), increase in survival: 20 or 40 mg/kg/day i.p. for 30 days
Protocol: FIG. 28. Neuroprotective efficacy of P7C3, P7C3A20 and Dimebon for newborn neurons in the adult hippocampus. Test compounds were evaluated by dose response assay for their ability to block normal apoptotic cell death of newborn neural precursor cells in the adult dentate gyrus. […] P7C3 is intermediate in both measures. 6 animals were tested per group. Dosing is expressed as total mg/day, and compounds were administered intraperitoneally in divided doses twice daily. Data are expressed as mean±SEM. Values for P7C3 and P7C3A20 were compared to those of vehicle (VEH), and values for Dimebon were compared to those of saline (SAL).
In order to more carefully compare the neuroprotective efficacy of these compounds in abetting hippocampal neurogenesis, we conducted dose-response studies in a 30 day BrdU pulse-chase survival assay (FIG. 28). Briefly, newborn cells were labeled with a single intraperitoneal (i.p.) injection of BrdU (150 mg/kg), followed by daily treatment with the three test compounds beginning the following day. After 30 days of compound administration, mice were transcardially perfused with 4% paraformaldehyde, brains were dissected, and immunohistochemical detection of BrdU followed by standard microscopic imaging and normalization for dentate gyrus volume was used to quantify the number of surviving cells.
Because both social activity and voluntary exercise enhance hippocampal neurogenesis, mice were individually housed without access to running wheels throughout the entire procedure, beginning one week prior to bromodeoxyuridine (BrdU, Sigma-Aldrich) labeling of newborn cells. Throughout the study, mice had ad libitum access to food and water. BrdU was injected intraperitoneally at 150 mg/kg i.p., and 24 hours later administration of test compounds or vehicle was initiated. P7C3 and P7C3A20 were dissolved in 5% dextrose (pH 7.0) with 2.5% DMSO and 10% Cremaphor EL (Sigma, C5135). Dimebon was dissolved in normal saline. Compounds were compared to their respective controls, and were tested at 2.5, 5, 10 and 20 mg/kg twice daily (i.p.) for 30 days. The injection site was alternated between right and left sides. Each group consisted of six 12-week-old adult male C57 Bl/6 mice. Animals were monitored daily for general health and weight loss. Cage changes were performed per routine scheduling. After 30 days of compound administration, mice were sacrificed by transcardial perfusion with 4% paraformaldehyde at pH 7.4, and their brains were processed for immunohistochemical detection of incorporated BrdU in the dentate gyrus. Dissected brains were immersed in 4% paraformaldehyde overnight at 4 degrees Celsius, then cryoprotected in sucrose before being sectioned with a Leica SM2000R sliding microtome coronally into […] thick free-floating sections. Unmasking of BrdU antigen was achieved through incubating tissue sections for two hours in 50% formamide/2×SSC at 65 degrees Celsius, followed by five minute wash in 2×SSC and subsequent incubation for thirty minutes in 2M HCl at 37 degrees Celsius. Sections were processed for immunohistochemical staining with mouse monoclonal anti-BrdU (1:100, Roche). Diaminobenzidine was used as a chromagen, and tissue was counter-stained with hematoxylin to aid in visualization of the neuroanatomy. Images were analyzed with a Nikon Eclipse 90i motorized research microscope with Plan Apo lenses coupled with Metamorph Image Acquisition software (Nikon). Quantification of all staining was done blind to treatment group. The number of BrdU+ cells in the entire dentate gyrus was quantified by counting BrdU+ cells within the dentate gyrus in every fifth section throughout the entire hippocampus and then normalizing for dentate gyrus volume.

[2] = Plasma, brain and spinal cord levels in G93A-SOD1 study (LC/MS/MS); format: in vivo, mouse; conditions: 20 mg/kg/day for 21 days; for spinal cord accumulation relative to other compound: six hours after last injection
Protocol: FIG. 37. Plasma, brain and spinal cord levels of P7C3A20, P7C3 and Dimebon. Five mice for each compound group were treated for 21 days with 20 mg/kg/day of the compound, starting on day 85. Blood, brain and spinal cord were harvested six hours after the last injection and compound levels were measured by LC/MS/MS. Concentrations are presented as mean±SEM.

| SMILES | walking gait (back stride, front stride, back-front distance) (G93A-SOD1 mutant mice) | increase in survival of newborn neurons [1] | neuroprotective efficacy (increase in survival of newborn neurons) [1] | ceiling of efficacy (CoE), increase in survival [1] | entry into brain and spinal cord [2] | spinal cord accumulation relative to other compound [2] |
| --- | --- | --- | --- | --- | --- | --- |
| Cc1ccc2c(c1)c1c(n2CCc2ccc(C)nc2)CCN(C)C1 [Dimebon, 2,3,4,5-Tetrahydro-2,8-dimethyl-5-(2-(6-methyl-3-pyridyl)ethyl)-1H-pyrido(4,3-b)indole, reference compound] | none of these parameters in the walking gait analysis at 20 mg/kg/day were significantly improved | neither P7C3 nor Dimebon exhibited any effect | 15% | ≈ 30% | able to enter both the brain and spinal cord | comparable levels of spinal cord accumulation to P7C3A20 |
| COc1cccc(NCC(F)Cn2c3ccc(Br)cc3c3cc(Br)ccc32)c1 (centres unmarked) [Example P7C3A20, N-(3-(3,6-dibromo-9H-carbazol-9-yl)-2-fluoropropyl)-3-methoxyaniline] | helps preserve walking gait | ~100% | about 175% | ≈ 230% | able to enter both the brain and spinal cord | less than one-twentieth the concentration of P7C3 |
| OC(CNc1ccccc1)Cn1c2ccc(Br)cc2c2cc(Br)ccc21 (centres unmarked) [Example P7C3] | none of these parameters in the walking gait analysis at 20 mg/kg/day were significantly improved | neither P7C3 nor Dimebon exhibited any effect | 65% | ≈ 130% | able to enter both the brain and spinal cord |  |
